Measurements from PMC6440935, “Characterization and phase I study of CLR457, an orally bioavailable pan-class I PI3-kinase inhibitor” (Investigational New Drugs, 2018).
Like-named read-outs stand apart in the source and are kept apart here.

Conditions: drug-related

C[C@H]1OC(=O)N(c2cc(-c3cnc(N)nc3C(F)(F)F)nc(N3CCOCC3)n2)[C@H]1CO [CLR457]
Cough, Grade ≥ 3 (10 mg, N = 3): 0 n (%) | Decreased appetite, All Grade (10 mg, N = 3): 0 n (%) | Decreased appetite, Grade ≥ 3 (10 mg, N = 3): 0 n (%) | Decreased neutrophil count, All Grade (10 mg, N = 3): 0 n (%) | Decreased neutrophil count, Grade ≥ 3 (10 mg, N = 3): 0 n (%) | Dehydration, All Grade (10 mg, N = 3): 0 n (%) | Dehydration, Grade ≥ 3 (10 mg, N = 3): 0 n (%) | Diarrhea, All Grade (10 mg, N = 3): 0 n (%) | Diarrhea, Grade ≥ 3 (10 mg, N = 3): 0 n (%) | Dry mouth, All Grade (10 mg, N = 3): 0 n (%) | Dry mouth, Grade ≥ 3 (10 mg, N = 3): 0 n (%) | Dry skin, All Grade (10 mg, N = 3): 0 n (%) | Dry skin, Grade ≥ 3 (10 mg, N = 3): 0 n (%) | Dysgeusia, All Grade (10 mg, N = 3): 0 n (%) | Dysgeusia, Grade ≥ 3 (10 mg, N = 3): 0 n (%) | Fatigue, All Grade (10 mg, N = 3): 1 (33.3) n (%) | Fatigue, Grade ≥ 3 (10 mg, N = 3): 0 n (%) | Headache, All Grade (10 mg, N = 3): 0 n (%) | Headache, Grade ≥ 3 (10 mg, N = 3): 0 n (%) | Hyperglycemia, All Grade (10 mg, N = 3): 0 n (%) | Hyperglycemia, Grade ≥ 3 (10 mg, N = 3): 0 n (%) | Hypomagnesaemia, All Grade (10 mg, N = 3): 0 n (%) | Hypomagnesaemia, Grade ≥ 3 (10 mg, N = 3): 0 n (%) | Maculo-papular rash, All Grade (10 mg, N = 3): 0 n (%) | Maculo-papular rash, Grade ≥ 3 (10 mg, N = 3): 0 n (%) | Nausea, All Grade (10 mg, N = 3): 1 (33.3) n (%) | Nausea, Grade ≥ 3 (10 mg, N = 3): 0 n (%) | Pneumonitis, All Grade (10 mg, N = 3): 0 n (%) | Pneumonitis, Grade ≥ 3 (10 mg, N = 3): 0 n (%) | Pruritus, All Grade (10 mg, N = 3): 0 n (%) | Pruritus, Grade ≥ 3 (10 mg, N = 3): 0 n (%) | Pyrexia, All Grade (10 mg, N = 3): 0 n (%) | Pyrexia, Grade ≥ 3 (10 mg, N = 3): 0 n (%) | Rash, All Grade (10 mg, N = 3): 0 n (%) | Rash, Grade ≥ 3 (10 mg, N = 3): 0 n (%) | Stomatitis, All Grade (10 mg, N = 3): 0 n (%) | Stomatitis, Grade ≥ 3 (10 mg, N = 3): 0 n (%) | Vomiting, All Grade (10 mg, N = 3): 0 n (%) | Vomiting, Grade ≥ 3 (10 mg, N = 3): 0 n (%) | Weight decreased, All Grade (10 mg, N = 3): 0 n (%) | Weight decreased, Grade ≥ 3 (10 mg, N = 3): 0 n (%) | Asthenia, Grade ≥ 3 (20 mg, N = 4): 0 n (%) | Chills, All Grade (20 mg, N = 4): 0 n (%) | Chills, Grade ≥ 3 (20 mg, N = 4): 0 n (%) | Colitis, All Grade (20 mg, N = 4): 0 n (%) | Colitis, Grade ≥ 3 (20 mg, N = 4): 0 n (%) | Cough, All Grade (20 mg, N = 4): 0 n (%) | Cough, Grade ≥ 3 (20 mg, N = 4): 0 n (%) | Decreased appetite, All Grade (20 mg, N = 4): 0 n (%) | Decreased appetite, Grade ≥ 3 (20 mg, N = 4): 0 n (%) | Decreased neutrophil count, All Grade (20 mg, N = 4): 0 n (%) | Decreased neutrophil count, Grade ≥ 3 (20 mg, N = 4): 0 n (%) | Dehydration, All Grade (20 mg, N = 4): 0 n (%) | Dehydration, Grade ≥ 3 (20 mg, N = 4): 0 n (%) | Diarrhea, All Grade (20 mg, N = 4): 0 n (%) | Diarrhea, Grade ≥ 3 (20 mg, N = 4): 0 n (%) | Dry mouth, All Grade (20 mg, N = 4): 0 n (%) | Dry mouth, Grade ≥ 3 (20 mg, N = 4): 0 n (%) | Dry skin, All Grade (20 mg, N = 4): 0 n (%) | Dry skin, Grade ≥ 3 (20 mg, N = 4): 0 n (%) | Dysgeusia, All Grade (20 mg, N = 4): 0 n (%) | Dysgeusia, Grade ≥ 3 (20 mg, N = 4): 0 n (%) | Fatigue, All Grade (20 mg, N = 4): 1 (25.0) n (%) | Fatigue, Grade ≥ 3 (20 mg, N = 4): 0 n (%) | Headache, All Grade (20 mg, N = 4): 0 n (%) | Headache, Grade ≥ 3 (20 mg, N = 4): 0 n (%) | Hyperglycemia, All Grade (20 mg, N = 4): 0 n (%) | Hyperglycemia, Grade ≥ 3 (20 mg, N = 4): 0 n (%) | Hypomagnesaemia, All Grade (20 mg, N = 4): 0 n (%) | Hypomagnesaemia, Grade ≥ 3 (20 mg, N = 4): 0 n (%) | Maculo-papular rash, All Grade (20 mg, N = 4): 0 n (%) | Maculo-papular rash, Grade ≥ 3 (20 mg, N = 4): 0 n (%) | Nausea, All Grade (20 mg, N = 4): 0 n (%) | Nausea, Grade ≥ 3 (20 mg, N = 4): 0 n (%) | Pneumonitis, All Grade (20 mg, N = 4): 0 n (%) | Pneumonitis, Grade ≥ 3 (20 mg, N = 4): 0 n (%) | Pruritus, All Grade (20 mg, N = 4): 0 n (%) | Pruritus, Grade ≥ 3 (20 mg, N = 4): 0 n (%) | Pyrexia, All Grade (20 mg, N = 4): 0 n (%) | Pyrexia, Grade ≥ 3 (20 mg, N = 4): 0 n (%) | Rash, All Grade (20 mg, N = 4): 1 (25.0) n (%) | Rash, Grade ≥ 3 (20 mg, N = 4): 0 n (%) | Stomatitis, All Grade (20 mg, N = 4): 0 n (%) | Stomatitis, Grade ≥ 3 (20 mg, N = 4): 0 n (%) | Vomiting, All Grade (20 mg, N = 4): 0 n (%) | Vomiting, Grade ≥ 3 (20 mg, N = 4): 0 n (%) | Weight decreased, All Grade (20 mg, N = 4): 0 n (%) | Weight decreased, Grade ≥ 3 (20 mg, N = 4): 0 n (%) | Asthenia, Grade ≥ 3 (40 mg, N = 5): 0 n (%) | Chills, All Grade (40 mg, N = 5): 0 n (%) | Chills, Grade ≥ 3 (40 mg, N = 5): 0 n (%) | Colitis, All Grade (40 mg, N = 5): 0 n (%) | Colitis, Grade ≥ 3 (40 mg, N = 5): 0 n (%) | Cough, All Grade (40 mg, N = 5): 0 n (%) | Cough, Grade ≥ 3 (40 mg, N = 5): 0 n (%) | Decreased appetite, All Grade (40 mg, N = 5): 1 (20.0) n (%) | Decreased appetite, Grade ≥ 3 (40 mg, N = 5): 0 n (%)
